# Tests used:
# [1] = system: C57/BL6 WT mice subjected to TAC pressure overload; test: Transthoracic echocardiography in conscious TAC mice; format: in vivo, mouse; conditions: WT mice, TAC 3 weeks, oral co-treatment 1 mg/g food; mean ± sem
# Source text: Male NOS3 null mice (NOS3^−/−) and C57/BL6 WT controls (8-11 weeks, Jackson Labs, Bar Harbor, Me., USA) were used. Pressure overload was produced by transverse aorta constriction (TAC). Briefly, The aortic arch was isolated by entering the extrapleural space between the second and third rib, and afterwards the transverse aorta was isolated between the right and left carotid arteries. A 7-0 prolene suture ligature was tied around the transverse aorta against a 27-gauge needle to produce a 65-70% constriction after the removal of the needle. After closing the chest, animals were extubated, and a subcutaneous injection of morphine sulphate 0.2 mg, was administered before they returned to their cages. Animal's ventilatory and circulatory status was checked every 30 minutes during the first 2 hours. Sham-operated mice underwent the same operation except for aortic constriction. […] Animals were randomized to receive placebo or BH4 (120 mg/kg/d) for the next 5 weeks. At the end of the study, i.e. at 9 weeks, animal were sacrificed to receive tissue or underwent in vivo PV-loop analysis. […] Control mice were subject to sham operations, and animals were studied 3-9 weeks following surgery. An additional group of wild-type animals were subjected to TAC for 3 weeks while co-treated with oral tetrahydrobiopterin (BH4) (Sigma-Aldrich) (1 mg/g food) mixed in their rodent chow, providing 5 mg/day based on 4-6 g daily diet^8.
# Two different BH4 treatment protocols are used. For experiments related to FIGS. 1-7, where prevention of cardiac indications is described BH4 is provided orally as a treatment starting 2 days after TAC surgery (once mice are again eating oral diet). For those figures related to treatment of established cardiac indications, FIGS. 8-23, BH4 is provided orally but this is delayed for 4 weeks to establish substantial cardiac hypertrophy, remodeling, and NOS-uncoupling. Then the treatment is provided for the remaining 5 week period.
# For folate studies, C57/BL6 WT were treated with folate (10 mg/kg/day) or with placebo for a 9 week period during which time the hearts were exposed to TAC.
# In vivo cardiac morphology was assessed by transthoracic echocardiography (Acuson Sequoia C256, 13 MHz transducer, Siemens) in conscious mice. M-mode left ventricular (LV) end-systolic and end-diastolic dimensions were averaged from 3-5 beats. Left ventricular ejection fraction (LVEF) and percent fractional shortening (% FS) were calculated as: LVEF=[(LVEDD)^3-(LVESD)^3]/(LVEDD)^3×100; % FS=(LVEDD−LVESD)/LVEDD×100. Wall thickness of lateral freewall and intraventricular septum were averaged. Studies and analysis were performed blinded to heart condition.
# [2] = target: T1, NOS3 (Mus musculus, UniProt P70313); test: NOS3 dimer/monomer by low-temperature SDS-PAGE in TAC hearts; format: in vivo; conditions: WT mice, TAC 3 weeks, oral co-treatment
# T1 construct: from tissue; host or cells: mouse heart (myocardium) after sham or TAC surgery
# T1 sequence (P70313 2-1202 limits assumed): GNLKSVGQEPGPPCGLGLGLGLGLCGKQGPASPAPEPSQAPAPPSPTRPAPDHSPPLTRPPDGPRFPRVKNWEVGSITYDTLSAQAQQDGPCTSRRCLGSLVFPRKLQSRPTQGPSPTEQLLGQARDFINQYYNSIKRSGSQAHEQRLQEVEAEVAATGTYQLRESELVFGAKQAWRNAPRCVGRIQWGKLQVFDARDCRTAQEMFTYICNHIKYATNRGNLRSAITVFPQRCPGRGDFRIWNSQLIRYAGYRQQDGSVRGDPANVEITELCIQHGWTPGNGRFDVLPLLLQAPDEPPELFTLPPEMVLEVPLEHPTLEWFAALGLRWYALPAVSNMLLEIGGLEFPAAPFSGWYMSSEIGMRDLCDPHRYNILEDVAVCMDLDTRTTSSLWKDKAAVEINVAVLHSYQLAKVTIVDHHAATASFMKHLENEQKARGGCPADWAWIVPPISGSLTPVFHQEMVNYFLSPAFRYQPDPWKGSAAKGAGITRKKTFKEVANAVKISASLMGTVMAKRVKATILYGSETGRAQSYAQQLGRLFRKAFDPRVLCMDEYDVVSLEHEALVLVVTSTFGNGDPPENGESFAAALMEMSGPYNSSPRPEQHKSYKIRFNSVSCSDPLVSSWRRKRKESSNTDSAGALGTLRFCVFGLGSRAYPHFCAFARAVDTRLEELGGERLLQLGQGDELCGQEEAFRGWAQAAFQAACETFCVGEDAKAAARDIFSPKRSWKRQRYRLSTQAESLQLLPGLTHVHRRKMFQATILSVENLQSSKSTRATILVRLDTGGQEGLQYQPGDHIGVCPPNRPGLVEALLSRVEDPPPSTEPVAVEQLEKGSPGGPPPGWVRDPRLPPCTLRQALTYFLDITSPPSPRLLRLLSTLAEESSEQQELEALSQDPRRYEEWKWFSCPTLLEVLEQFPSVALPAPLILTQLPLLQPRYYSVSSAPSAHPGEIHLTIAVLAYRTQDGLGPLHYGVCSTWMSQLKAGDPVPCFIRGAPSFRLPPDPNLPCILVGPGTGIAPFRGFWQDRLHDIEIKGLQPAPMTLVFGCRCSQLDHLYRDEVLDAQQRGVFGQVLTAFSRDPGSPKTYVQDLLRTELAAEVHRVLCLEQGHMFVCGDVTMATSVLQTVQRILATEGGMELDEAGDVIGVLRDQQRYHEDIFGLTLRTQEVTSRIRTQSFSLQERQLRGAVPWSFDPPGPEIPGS
# Description: SDS-resistant NOS3 dimers and monomers were assayed using low-temperature SDS PAGE under reducing or non-reducing conditions, as described previously^7. NOS3 was immunoprecipitated as described^16 and the resulting samples added to fivefold Laemmli buffer (0.32 mol/l Tris-HCl, pH 6.8, 0.5 mol/l glycine, 10% SDS, 50% glycerol, and 0.03% bromophenol blue) in non-reducing gel (no 2-mercaptoethanol) to identify dimer dissociation due to reduced disulfide bridges. To provide fully denatured control lanes, samples were boiled for 15 minutes prior to loading. Electrophoresis was performed using Tris glycine 6% gels (Invitrogen Corp.), and gels and buffers maintained in an ice bath at 4° C. and stained (SimplyBlue, Invitrogen Corp.). Calcium dependent and independent NOS activity was determined from myocardial homogenates by [3H] L-arginine to [3H] citrulline conversion (Sigma-Aldrich) as described^16. An alternative approach involved more direct Western blot analysis without requiring initial NOS IP. Cold SDS-Page Western blot analysis was performed using a self-made […] SDS-Tris gel. After overnight running on ice, the gel was transferred for 3 h to nitrocellulose membrane. […] Bound antibodies were detected with horseradish peroxidase-conjugated anti-mouse IgG and visualize with an enhanced chemiluminescence detection system.
smiles,measurement,setting,value
"Nc1nc2c(c(=O)[nH]1)NC(C(O)C(O)CO)CN2 (centres unmarked) [H4N, tetrahydroneopterin]",Fractional Shortening,[1],33.8 ± 5.3%
same,LV diameter Diastole,[1],3.94 ± 0.19 mm
same,LV diameter Systole,[1],2.70 ± 0.31 mm
same,Wall thickness,[1],0.98 ± 0.03 mm
same,NOS3 dimerization,[2],unaltered

# Source: patent US20100004248A1, “Use of a Nitric Oxide Synthase Modulator for the Treatment of Cardiac Indications” (priority 2005, published 2010)
